Data reported in patent US20110312897A1, “CATHEPSIN L PROTEOLYTICALLY PROCESSES HISTONE H3 DURING MOUSE EMBRYONIC STEM CELL DIFFERENTIATION” (THE ROCKEFELLER UNIVERSITY, priority 2008, published 2011).
Each block holds one compound with its values, some of them ahead of it. Where no end group is shown, it is not given here.

Legend:
[1] = molecular target: T1, H3 protease activity in fraction #23 (Mus musculus, UniProt P06797); test: In vitro H3 cleavage assay of hydroxyapatite fraction #23 +/- protease inhibitors; assay type: biochemical
T1 construct: a double chain mature form at ˜25 kD and ˜5 kD; endogenous in cells; host or cells: chromatin of 3 days +RA differentiating mouse ESCs (LF2), hydroxyapatite fraction #23
T1 sequence (P06797 114-288 limits assumed): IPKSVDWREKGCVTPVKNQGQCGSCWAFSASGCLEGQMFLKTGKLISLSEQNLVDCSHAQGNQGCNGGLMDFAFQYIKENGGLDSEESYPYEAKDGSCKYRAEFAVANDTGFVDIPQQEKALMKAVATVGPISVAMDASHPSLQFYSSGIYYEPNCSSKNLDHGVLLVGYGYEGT
T1 sequence (P06797 291-334 limits assumed): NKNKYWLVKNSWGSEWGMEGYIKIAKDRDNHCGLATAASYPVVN
Procedure: (§1) Extracts were incubated in buffer (10 mM HEPES, 10 mM KCl, 1.5 mM MgCl2, 0.34M sucrose, 10% glycerol, 5 mM β-mercaptoethanol, all final) with 0.1 μg/μl rH3-HIS (purified from E. coli) and incubated at 37° C. for 1-3 hours. Reactions were stopped by addition of 5×SDS sample buffer and boiling; results were analyzed by immunoblotting with HIS-HRP and/or H3.cs1 antibody. For MS analysis, reactions were quenched by addition of 0.1% (final) TFA. rCathepsin L (R&D Systems, # 1515-CY-010), rCathepsin B (R&D Systems Cat No. BAF965), and rCathepsin K (Calbiochem Cat. No. 342001) were purchased from commercial sources and tested in the assay with rH3-HIS.
Three days+RA differentiating ESC chromatin pellets were solubilized by sonication in buffer A (80 mM NaPO^−4, 200 mM NaCl), injected onto a 2 or 5 mL hydroxyapatite column (BioRad), and fractionated with a 200 mM to 2M NaCl gradient. Each fraction was then assayed as described above. […] Digest was then acidified with glacial acetic acid and aliquots of samples were analyzed using an LTQ-FT as described above. Data was searched against a mouse database using SEQUEST (Eng et al., Journal of the American Society of Mass Spectrometry 5:976-989 (1994), which is hereby incorporated by reference in its entirety). All spectra of interest were manually validated.
To validate further the identification of Cathepsin L as a histone H3 protease, the enriched fractions were tested with different classes of protease inhibitors in the H3 cleavage assay.

[2] = molecular target: T2, Recombinant mouse Cathepsin L (Mus musculus, UniProt P06797); test: Inhibition of recombinant mouse Cathepsin L cleavage of rH3-HIS by E64 (immunoblot, FIG. 13); assay type: biochemical; conditions: pH 7.5 and pH 5.5; E64 10 μM, 50 μM, and 500 μM
T2 construct: purchased R&D Systems 1515-CY-010
T2 sequence (P06797 114-334): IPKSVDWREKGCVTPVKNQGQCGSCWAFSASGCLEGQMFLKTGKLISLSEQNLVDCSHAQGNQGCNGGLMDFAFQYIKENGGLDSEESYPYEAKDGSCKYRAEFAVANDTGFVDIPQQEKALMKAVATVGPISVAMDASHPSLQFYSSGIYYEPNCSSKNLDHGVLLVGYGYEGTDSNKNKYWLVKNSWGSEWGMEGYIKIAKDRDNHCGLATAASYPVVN
Procedure: Recombinant mouse Cathepsin L was incubated with C-terminally HIS-tagged recombinant histone H3 at both pH 7.5 (left) and pH 5.5 (right) in either buffer alone (−) or in the presence of the cysteine protease inhibitor E64 (+); the final concentration of E64 was 10 μM, 50 μM, and 500 μM.
as §1

Cbx7-CD protein = molecular target: T3, Cbx7-CD protein (Mus musculus, UniProt Q8VDS3); test: Fluorescence anisotropy of Cbx7-CD binding to H3 peptides; conditions: p<0.01
T3 construct: the chromodomain of mouse CBX7; made in house
T3 sequence (Q8VDS3 11-69 limits assumed): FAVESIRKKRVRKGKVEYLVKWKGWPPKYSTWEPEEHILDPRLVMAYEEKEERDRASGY
Procedure: FIG. 7A is an immunoblot showing cleavage of the modified recombinant histone 3 substrates following incubation with rCathepsin L. The four rH3 substrates used in the cleavage assay include: 1=rH3 unmodified, 2=rH3 alkylated to K27me2, 3=rH3 pan-acetylated with acetic anhydride, 4=rH3+K27me2 pan-acetylated with acetic anhydride. FIG. 7B is a graph showing the amount of recombinant H3 cleavage product formed following incubation with Cathepsin L. H3 cleavage reactions were performed as in FIG. 7A using synthesized H3 peptides representing amino acids 15 to 31. Reactions were incubated with ˜250 pmol peptide and quenched with 0.1% TFA before being plated in duplicate for ELISA with the H3cs.1 antibody. Signal was normalized to that of mock reactions for each peptide. Results represent three independent experiments. […] Binding decreases 3-fold with cleaved peptide. p<0.01. Kds are in μM±SEM. Data points represent the mean±SD
What effect the cleavage of the H3 tail, a proteolytic modification rather than a covalent modification, might have on the binding of effector proteins was examined. […]

[3] = molecular target: T4, chromodomain of mouse CBX7 (Mus musculus, UniProt Q8VDS3); test: Peptide pull-down assay; assay type: binding; conditions: cleaved vs non-cleaved H3 tail peptide
T4 construct: the chromodomain of mouse CBX7; made in house
T4 sequence (Q8VDS3 11-69 limits assumed): T3 sequence (Q8VDS3 11-69 limits assumed)
Procedure: Peptide pull-down assays were performed as described Wysocka, J. “Identifying Novel Proteins Recognizing Histone Modifications Using Peptide Pull-down Assay,” Methods 40:339-343 (2006), which is hereby incorporated by reference in its entirety, using biotinylated peptides conjugated to streptavidin agarose beads (Pierce Cat. No. 20349). Elutions were loaded onto 10 or 15% SDS-PAGE gels and silver stained.
What effect the cleavage of the H3 tail, a proteolytic modification rather than a covalent modification, might have on the binding of effector proteins was examined. Given that K27 methylation is a well-documented binding site for the chromodomain-containing protein Polycomb (Bernstein et al., “Mouse Polycomb Proteins Bind Differentially to Methylated Histone H3 and RNA and are Enriched in Facultative Heterochromatin,” Mol Cell Biol 26:2560-2569 (2006) and Fischle et al., “Molecular Basis for the Discrimination of Repressive Methyl-lysine Marks in Histone H3 by Polycomb and HP1 Chromodomains,” Genes Dev 17:1870-1881 (2003), which are hereby incorporated by reference in their entirety), the effect of H3 cleavage on Pc binding to H3K27 methylation was tested. […]

cathepsin D = cathepsin D (Homo sapiens, UniProt P07339); conditions: cited from earlier work
Chain of cathepsin D (P07339 65-412): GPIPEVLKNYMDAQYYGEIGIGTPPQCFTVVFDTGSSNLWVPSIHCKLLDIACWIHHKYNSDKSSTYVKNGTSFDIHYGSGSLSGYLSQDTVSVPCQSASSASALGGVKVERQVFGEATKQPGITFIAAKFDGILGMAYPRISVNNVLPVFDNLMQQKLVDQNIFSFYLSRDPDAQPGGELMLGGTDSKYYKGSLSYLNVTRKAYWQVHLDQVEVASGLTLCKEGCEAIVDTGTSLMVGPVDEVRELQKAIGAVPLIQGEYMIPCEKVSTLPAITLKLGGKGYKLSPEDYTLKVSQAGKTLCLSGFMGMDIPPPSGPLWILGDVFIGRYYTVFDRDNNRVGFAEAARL

cathepsin L = cathepsin L (Homo sapiens, UniProt P07711); conditions: cited from earlier work
Chain of cathepsin L (P07711 114-333, species assumed): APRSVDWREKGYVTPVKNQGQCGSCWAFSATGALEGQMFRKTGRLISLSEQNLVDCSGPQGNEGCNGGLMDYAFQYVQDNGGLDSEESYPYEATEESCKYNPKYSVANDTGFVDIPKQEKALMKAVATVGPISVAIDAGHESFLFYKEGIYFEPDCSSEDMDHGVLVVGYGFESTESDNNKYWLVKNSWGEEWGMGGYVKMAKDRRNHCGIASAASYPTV

H3 cleavage activity ([1]; E64 10 μM, lowest concentration tested): all cleavage was abolished
Compound: CC(C)C[C@H](NC(=O)[C@H]1O[C@@H]1C(=O)O)C(=O)NCCCCN=C(N)N (relative stereo) [E64, L-trans-Epoxysuccinyl-leucylamido(4-guanidino)butane]
inhibition of H3 protease activity in fraction #23 ([1]; FIG. 4A): potent inhibitor of the H3 protease activity
inhibition of recombinant mouse Cathepsin L (rH3-HIS cleavage) [2]: inhibition of recombinant mouse Cathepsin L

decrease in Cbx7-CD binding vs non-cleaved peptide (amino acid residues 18-37) (Cbx7-CD protein): 3 fold
CBX7 binding to methylated H3K27 [3]: greatly diminished
Compound: cleaved peptide: peptide mimicking the cleaved H3 tail, amino acid residues 22-37, K27 methylated (TKAARK(Me)SAPATGGVKK; not fully specified)

Compound: NC(N)=O [Urea]
enhancement of cathepsin D activity, factor (cathepsin D): 6
enhancement of cathepsin L activity, factor (cathepsin L): 2.5
